The target in this experiment is T1, recombinant human 5-HT5A receptor (Homo sapiens, UniProt P47898).
T1 construct: expressed in transfected cells; host or cells: HEK-EBNA (Human Embryonic Kidney-EBNA) cells, transient cDNA expression; membranes
The experiment is described as follows: [3H]LSD radioligand binding assay, membranes of HEK-EBNA cells transiently expressing 5-HT5A receptors. The following applies: [3H]LSD approx. 1 nM, SPA beads, 120 min at room temperature; Ki from IC50 by the Cheng-Prussoff equation. Here is the method:
A [^3H]LSD radioligand binding assay was used to determine the affinity of the compounds for the recombinant human 5-HT5A receptor, in membranes from transiently (cDNA) expressed 5-HT5A receptors in Human Embryonic Kidney-EBNA (HEK-EBNA) cells. Assay buffer consisted of Tris (50 mM) buffer containing 1 mM EGTA, 10 mM MgCl2 (pH 7.4) and 10 μM pargyline. The binding assay was carried out in 96-well-plates in the presence of [^3H]LSD (approximately 1 nM), approximately 2 μg/well of membrane protein, and 0.5 mg of Ysi-poly-1-lysine SPA beads in a final volume of 200 μl of buffer. Non-specific binding was defined using methiothepin 2 μM. Compounds were tested at 10 concentrations. All assays were conducted in duplicate and repeated at least two times. Assay plates were incubated for 120 min at room temperature before centrifugation. Bound ligand was determined using a Packard Topcount scintillation counter. IC50 values were calculated using a non-linear curve fitting program and Ki values calculated using the Cheng-Prussoff equation.

The results in this text go back to patent US8044047B2, “5-substituted benzoxazines” (Hoffman-La Roche Inc., priority 2008, dated 2011).

The structures appear in SMILES notation.

T1 sequence (P47898 whole entry): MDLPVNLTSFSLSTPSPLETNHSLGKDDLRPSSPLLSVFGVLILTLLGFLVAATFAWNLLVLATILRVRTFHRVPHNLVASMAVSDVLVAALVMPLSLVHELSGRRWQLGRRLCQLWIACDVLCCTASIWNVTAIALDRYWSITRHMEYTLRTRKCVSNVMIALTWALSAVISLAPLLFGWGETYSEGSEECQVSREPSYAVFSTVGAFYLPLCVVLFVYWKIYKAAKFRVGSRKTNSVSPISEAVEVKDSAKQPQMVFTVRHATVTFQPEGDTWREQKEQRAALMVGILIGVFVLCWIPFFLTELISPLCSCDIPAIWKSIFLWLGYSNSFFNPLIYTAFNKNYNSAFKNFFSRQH

Take `COc1cccc2c1C(NC1=Nc3cccc(N)c3CO1)CO2` (stereo not drawn) [Example 4, N^2-(4-Methoxy-2,3-dihydro-benzofuran-3-yl)-4H-benzo[d][1,3]oxazine-2,5-diamine]: the Ki stood at 27 nM.

Take `O=[N+]([O-])c1cccc2c1COC(N[C@@H]1CCc3ccccc31)=N2` [Example 2, (R)-Indan-1-yl-(5-nitro-4H-benzo[d][1,3]oxazin-2-yl)-amine]: the Ki is 169 nM.

Regarding `Fc1ccc(Nc2cccc3c2COC(N[C@@H]2CCc4ccccc42)=N3)cc1` [Example 14, N^5-(4-Fluoro-phenyl)-N^2—(R)-indan-1-yl-4H-benzo[d][1,3]oxazine-2,5-diamine], the Ki was 3 nM.

As to `O=S(=O)(Nc1cccc2c1COC(N[C@@H]1CCc3ccccc31)=N2)c1cc(F)cc(F)c1` [Example 6, 3,5-Difluoro-N-[2-((R)-indan-1-ylamino)-4H-benzo[d][1,3]oxazin-5-yl]-benzenesulfonamide], the Ki is 2 nM.

Take `O=C(Cc1ccc(Cl)cc1)Nc1cccc2c1COC(N[C@@H]1CCc3ccccc31)=N2` [Example 5, 2-(4-Chloro-phenyl)-N-[2-((R)-indan-1-ylamino)-4H-benzo[d][1,3]oxazin-5-yl]-acetamide]: the Ki was determined as 131 nM.

Regarding `Brc1cccc2c1COC(N[C@@H]1CCc3ccccc31)=N2` [Example 9, (5-Bromo-4H-benzo[d][1,3]oxazin-2-yl)-(R)-indan-1-yl-amine], the inhibitory constant (Ki) stood at 106 nM.

In the case of `Clc1cccc2c1COC(N[C@@H]1CCc3ccccc31)=N2` [Example 1, (5-Chloro-4H-benzo[d][1,3]oxazin-2-yl)-(R)-indan-1-yl-amine], the Ki worked out at 57 nM.

Turning to `COc1cccc2c1C(NC1=Nc3cccc(NS(=O)(=O)c4cc(F)cc(F)c4)c3CO1)CO2` (stereo not drawn) [Example 7, 3,5-Difluoro-N-[2-(4-methoxy-2,3-dihydro-benzofuran-3-ylamino)-4H-benzo[d][1,3]oxazin-5-yl]-benzenesulfonamide], the Ki turned out to be 10 nM.

On to `Clc1ccc(Nc2cccc3c2COC(N[C@@H]2CCc4ccccc42)=N3)cc1` [Example 15, N^5-(4-Chloro-phenyl)-N^2—(R)-indan-1-yl-4H-benzo[d][1,3]oxazine-2,5-diamine], for which the Ki was 2 nM.

For `O=S(=O)(Nc1cccc2c1COC(N[C@@H]1CCc3ccccc31)=N2)C1CC1` [Example 8, Cyclopropanesulfonic acid [2-((R)-indan-1-ylamino)-4H-benzo[d][1,3]oxazin-5-yl]-amide], the Ki was 2 nM.

In the case of `CS(=O)(=O)Nc1cccc2c1COC(N[C@@H]1CCc3ccccc31)=N2` [Example 10, N-[2-((R)-Indan-1-ylamino)-4H-benzo[d][1,3]oxazin-5-yl]-methanesulfonamide], the Ki was 5 nM.

Take `Nc1cccc2c1COC(N[C@@H]1CCc3ccccc31)=N2` [Example 3, (R)—N^2-Indan-1-yl-4H-benzo[d][1,3]oxazine-2,5-diamine]: the Ki is 3 nM.

Consider `c1ccc2c(c1)CC[C@H]2NC1=Nc2cccc(C3CC3)c2CO1` [Example 12, (5-Cyclopropyl-4H-benzo[d][1,3]oxazin-2-yl)-(R)-indan-1-yl-amine], for which the Ki turned out to be 13 nM.

Turning to `N#Cc1cccc2c1COC(N[C@@H]1CCc3ccccc31)=N2` [Example 11, 2-((R)-Indan-1-ylamino)-4H-benzo[d][1,3]oxazine-5-carbonitrile], the Ki was determined as 118 nM.

Consider `Fc1ccc(-c2cccc3c2COC(N[C@@H]2CCc4ccccc42)=N3)cc1` [Example 13, [5-(4-Fluoro-phenyl)-4H-benzo[d][1,3]oxazin-2-yl]-(R)-indan-1-yl-amine], for which the Ki came out at 78 nM.
